Experiments:
Descurainia sophia = experiment: Activity assay of compositions: post-emergence spray treatment of stems and leaves (F), fresh weight inhibition and combined effect (Gowing method); format: in vivo; settings: 21 d
Procedure: (§1) The required active ingredient B was purchased from a reagent company or a technical material manufacturer or synthesized by a conventional method. The technical materials were all dissolved with acetone solvents and diluted with aqueous solution of 0.1% Tween-80 emulsifier, which should be used immediately after dilution.
Descurainia sophia weeds were cultivated by a pot culture method. […] Weed seeds with plump and uniform grains were selected, treated with 30% hydrogen peroxide for 10 min, and accelerated to germinate at 15-20° C. in a biochemical incubator (in darkness). The weed seeds that had just germinated were evenly placed on the surface of the soil and then covered with 0.5-1 cm soil according to the sizes of seeds.
The culture was carried out in a controllable sunlight greenhouse at 20-30° C., in natural light, and with relative humidity of 57%-72%.
Each treatment was repeated 4 times. Three pots with 20 weed seeds sowed per pot were treated each time.
The agents were used once in total in the experiment. When at the stage of 1.5-2 leaves, the weeds were thinned out to maintain 10 weeds per pot. Thirty weeds were kept in each treatment, and then continued to be cultured until the 10-leaf stage for further treatment.
(§2) The well-cultured test materials were evenly placed on a platform with an area of 0.5 m^2, and foliage spraying was carried out by the 3WP-2000-type walking spray tower at a dosage of 450 kg/ha and a spray pressure of 0.3 MPa. After all the solution was sprayed, the air valve was closed, and 30 seconds later, the door of the spray tower was opened, and the nutritional bowl was taken out. Next, the air valve was opened, and the spray tube was cleaned by spraying 50 ml of water. The test materials were transferred to and routinely cultured in a greenhouse after the treatment.
(§3) A method for investigating absolute numbers was employed. Whole seedlings of survival weeds were cut off along the soil surface with a blade, and the fresh weight of the weeds was weighed using an analytical balance. For dead weeds, the fresh weight thereof was zero.
(§4) The investigation was performed 21 days after the treatment for once in total.
(§5) The theoretical fresh weight inhibition rate of a mixed combination of each treatment was calculated by the Gowing method (E0=X+Y−X*Y/100). Then compared with the measured inhibition rate (E), the type of the combined effect of the combination of the two on weeds was evaluated, which was a synergistic effect when E−E0>10%; an antagonistic effect when E−E0<−10%; an additional effect when −10%≤E−E0≤10%. An optimal ratio was determined according to factors such as the actual control effects, characteristics of herbicides, balance of the formulation, etc. In the formula, X represents the fresh weight inhibition rate of the active ingredient A in a dosage of P; Y represents the fresh weight inhibition rate of the active ingredient B in a dosage of Q. The statistical results are shown in Table 4.

weeds = experiment: Activity assay of compositions: soil sealing treatment (S), fresh weight inhibition and combined effect (Gowing method); format: in vivo; settings: 21 d
Procedure: as §1
• Weeds were cultivated in a controllable sunlight greenhouse at 20 to 30° C., in natural light, and with relative humidity of 57% to 72%. […] The test soil was quantitatively filled to ¾ of the pot, and then watered from the bottom of the pot to completely wet the soil to saturation. The test weed seeds were accelerated to just germinate, and then evenly and quantitatively broadcasted on the soil surface, covered with 0.5-1 cm soil according to the sizes of the seeds, and ready for use 72 hours after sowing.
Each treatment was repeated 4 times. Four pots with 20 weed seeds sowed per pot were treated each time.
as §2, with “well-sowed” for “well-cultured”, “closed. And” for “closed, and”, “water.” for “water. The test materials were transferred to and routinely cultured in a greenhouse after the treatment.”
as §3, §4, §5

[1] = Eclipta prostrata, B 15 g a.i./ha

## O=C(O)c1nc(Cl)ccc1Cl [Clopyralid]
Descurainia sophia; B 30 g a.i./ha
  Control effect of B applied alone in a corresponding dose (%): 40.5%
Descurainia sophia; B 60 g a.i./ha
  Control effect of B applied alone in a corresponding dose (%): 58.8%

## CCOC(=O)c1nc(-c2ccc(C(F)(F)F)c(OC)c2F)nc(N)c1OC
Descurainia sophia; B 6 g a.i./ha
  Control effect of B applied alone in a corresponding dose (%): 26.8%
Descurainia sophia; B 12 g a.i./ha
  Control effect of B applied alone in a corresponding dose (%): 37.7%

## C[N+](C)(C)CCO.O=C([O-])COc1ccc(Cl)cc1Cl [2,4-D-Choline]
Descurainia sophia; B 150 g a.i./ha
  Control effect of B applied alone in a corresponding dose (%): 44.7%
Descurainia sophia; B 300 g a.i./ha
  Control effect of B applied alone in a corresponding dose (%): 60.0%

## Cc1nn(C)cc1C(=O)Oc1c(C(=O)c2ccc(C(F)(F)F)cc2S(C)(=O)=O)c(C)nn1C [Bipyrazone]
Descurainia sophia; B 15 g a.i./ha
  Control effect of B applied alone in a corresponding dose (%): 55.4%
Descurainia sophia; B 30 g a.i./ha
  Control effect of B applied alone in a corresponding dose (%): 78.9%

## CP(=O)(O)CCC(N)C(=O)O (stereo not drawn) [Glufosinate-ammonium]
Descurainia sophia; B 60 g a.i./ha
  Control effect of B applied alone in a corresponding dose (%): 50.7%
Descurainia sophia; B 120 g a.i./ha
  Control effect of B applied alone in a corresponding dose (%): 71.5%

## COC(=O)c1nc(-c2ccc(Cl)c(OC)c2F)cc(N)c1Cl [Halauxifen-methyl]
Descurainia sophia; B 3 g a.i./ha
  Control effect of B applied alone in a corresponding dose (%): 42.0%
Descurainia sophia; B 6 g a.i./ha
  Control effect of B applied alone in a corresponding dose (%): 67.4%

## O=C(O)CNCP(=O)(O)O [Glyphosate]
Descurainia sophia; B 75 g a.i./ha
  Control effect of B applied alone in a corresponding dose (%): 56.6%
Descurainia sophia; B 150 g a.i./ha
  Control effect of B applied alone in a corresponding dose (%): 75.8%

## c1cc[n+]2c(c1)-c1cccc[n+]1CC2 [Diquat dibromide monohydrate]
Descurainia sophia; B 60 g a.i./ha
  Control effect of B applied alone in a corresponding dose (%): 42.2%
Descurainia sophia; B 120 g a.i./ha
  Control effect of B applied alone in a corresponding dose (%): 66.6%

## COc1c(Cl)ccc(Cl)c1C(=O)O [Dicamba]
Descurainia sophia; B 37.5 g a.i./ha
  Control effect of B applied alone in a corresponding dose (%): 39.6%
Descurainia sophia; B 75 g a.i./ha
  Control effect of B applied alone in a corresponding dose (%): 50.8%

## COP(=S)(OC)SCC(=O)N(c1ccc(Cl)cc1)C(C)(C)C [Anilofos]
weeds; Eclipta prostrata, B 75 g a.i./ha
  Control effect of B applied alone in a corresponding dose (%): 14.2%
weeds; Eclipta prostrata, B 150 g a.i./ha
  Control effect of B applied alone in a corresponding dose (%): 23.6%

## COC(=O)c1sccc1S(=O)(=O)NC(=O)Nc1nc(C)nc(OC)n1 [Thifensulfuron-methyl]
weeds; Silene conoidea, B 30 g a.i./ha
  Control effect of B applied alone in a corresponding dose (%): 47.5%
weeds; Silene conoidea, B 60 g a.i./ha
  Control effect of B applied alone in a corresponding dose (%): 62.1%

## CC1=C(c2ccccc2)C(=O)N(C(C)(C)c2cc(Cl)cc(Cl)c2)CO1 [Oxaziclomefone]
weeds; Eclipta prostrata, B 7.5 g a.i./ha
  Control effect of B applied alone in a corresponding dose (%): 38.9%
weeds; [1]
  Control effect of B applied alone in a corresponding dose (%): 56.8%

## C[n+]1ccc(-c2cc[n+](C)cc2)cc1 [Paraquat dichloride]
Descurainia sophia; B 30 g a.i./ha
  Control effect of B applied alone in a corresponding dose (%): 46.9%
Descurainia sophia; B 60 g a.i./ha
  Control effect of B applied alone in a corresponding dose (%): 68.0%

## CCn1ncc(C(=O)c2ccc(S(C)(=O)=O)c(COCC(F)(F)F)c2Cl)c1OC(=O)c1cn(C)nc1C [Fenpyrazone]
weeds; Amaranthus retroflexus, B 15 g a.i./ha
  Control effect of B applied alone in a corresponding dose (%): 13.5%
weeds; Amaranthus retroflexus, B 30 g a.i./ha
  Control effect of B applied alone in a corresponding dose (%): 33.7%

## COc1cc(OC)nc(NC(=O)NS(=O)(=O)c2c(C3=NOCC(C)O3)c(Cl)nn2C)n1 (stereo not drawn) [Metazosulfuron]
weeds; [1]
  Control effect of B applied alone in a corresponding dose (%): 51.6%
weeds; Eclipta prostrata, B 30 g a.i./ha
  Control effect of B applied alone in a corresponding dose (%): 69.2%

Source: US20260305610A1, “TRIAZOLE COMPOUND, AND PREPARATION METHOD THEREFOR, HERBICIDAL COMPOSITION AND USE THEREOF” (QINGDAO KINGAGROOT CHEMICAL COMPOUND CO., LTD., priority 2023, published 2026)
